Test results published in US12234230B2, “Substituted benzyl-triazole compounds for Cbl-b inhibition, and further uses thereof” (Nurix Therapeutics, Inc., priority 2019, dated 2025).
Like-named read-outs stand apart in the source and are kept apart here.

Experiments:
Cbl-b = Cbl-b (Homo sapiens (Human), UniProt Q13191); assay: Cbl-b displacement assay (Cbl-b inhibition assay), Biological Example 1; type: binding
Protocol: The ability of candidate compounds to displace a known inhibitor and thereby inhibit Cbl-b activity was measured by monitoring the interaction of Cbl-b with a fluorophore-labeled probe in the presence of the candidate compound.
Following the one hour incubation, the plates were read for TR-FRET signal at 520/620 nm using an Envision plate reader (Perkin Elmer).

[1] = test system: primary human total T-cells; assay: Primary human total T-cell activation (IL-2 secretion, CD25 surface staining), Biological Example 2; conditions: fold change over baseline; for IL-2 secretion CD3/CD28 0.3 μM / CD25 staining CD3/CD28 0.3 μM: 0.3 μM inhibitor; for IL-2 secretion CD3/CD28 0.3 μM / IL-2 secretion CD3/CD28 1 μM / CD25 staining CD3/CD28 0.3 μM / CD25 staining CD3/CD28 1 μM: anti-CD3 and anti-CD28 co-stimulation; for IL-2 secretion CD3/CD28 1 μM / CD25 staining CD3 1 μM / IL-2 secretion CD3 1 μM / CD25 staining CD3/CD28 1 μM: 1 μM inhibitor; for CD25 staining CD3 1 μM / IL-2 secretion CD3 1 μM / CD25 staining CD3 3 μM / IL-2 secretion CD3 3 μM: anti-CD3 stimulation alone; for CD25 staining CD3 3 μM / IL-2 secretion CD3 3 μM: 3 μM inhibitor
Protocol: Peripheral blood mononuclear cells (PBMC) were obtained either: 1) by using Ficoll-Paque™ (GE Healthcare) for separation of peripheral blood hematopoietic cells from buffy coats of healthy human donors; or 2) directly from LeukoPak donations. […] The cells were rested overnight at 37° C. 5% CO2. The Cbl-inhibitor was added to 1×10^5 cells per well and the plate was incubated for one hour at 37° C. in 5% CO2 at the concentrations indicated (Table 3) with a final DMSO concentration of <0.1%. For samples stimulated with anti-CD3 antibody and anti-CD28 antibody (anti-CD3/anti-CD28), the Cbl-b inhibitor concentrations tested were 1 μM, and 0.3 μM. For samples stimulated with anti-CD3 antibody alone (anti-CD3), the Cbl-b inhibitor concentrations tested were 3 μM, and 1 μM. […] To prepare plates with plate bound anti-CD3 antibody (OKT3), 96-well round bottom tissue culture plates were coated with 100 μL of anti-CD3 antibody (OKT3) at 10 μg/mL for 4 hours at 37° C. 5% CO2 in phosphate buffered saline (PBS). […] Cells were stimulated for 48 hours prior to harvesting the cell free supernatant and staining the cell population for surface marker assessment by flow cytometry. Supernatants were analyzed for cytokine secretion, including IL-2 by ELISA (R&D Systems, Peprotech or Life Technologies) or Luminex multiplex kits (Procarta Life Technologies) following the manufacturer's protocol. Cells were stained with anti-CD25 antibody (BD Biosciences) to assess levels of surface marker of activation.
Readouts were reported as fold change over baseline. Baseline for this study was the measurement obtained from total human T-cells stimulated with anti-CD3 antibody and with soluble anti-CD28 antibody, wherein the cells were not incubated with a Cbl-b inhibitor (Table 3).

[2] = 0.125 nM Cbl-b final concentration (Low), read-out: Cbl-b activity IC50 (Low)

Chain of Cbl-b (Q13191 36-427): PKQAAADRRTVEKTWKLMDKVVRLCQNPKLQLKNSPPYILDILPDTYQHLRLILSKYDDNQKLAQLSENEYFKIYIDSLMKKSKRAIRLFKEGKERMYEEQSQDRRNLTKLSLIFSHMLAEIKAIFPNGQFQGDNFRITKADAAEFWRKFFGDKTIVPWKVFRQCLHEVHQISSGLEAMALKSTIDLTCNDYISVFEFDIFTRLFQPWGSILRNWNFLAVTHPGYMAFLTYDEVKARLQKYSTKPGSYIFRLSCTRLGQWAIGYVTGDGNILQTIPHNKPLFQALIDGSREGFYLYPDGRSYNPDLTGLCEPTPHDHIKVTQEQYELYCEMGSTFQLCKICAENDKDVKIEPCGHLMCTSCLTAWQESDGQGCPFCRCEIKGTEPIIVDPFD

Row | Compound | IC50 (Cbl-b; [2]) | IL-2 secretion CD3/CD28 0.3 μM [1] | IL-2 secretion CD3/CD28 1 μM [1] | CD25 staining CD3 1 μM [1] | IL-2 secretion CD3 1 μM [1] | CD25 staining CD3 3 μM [1] | IL-2 secretion CD3 3 μM [1] | CD25 staining CD3/CD28 0.3 μM [1] | CD25 staining CD3/CD28 1 μM [1] | IC50 (Cbl-b; read-out: IC50 values in the Cbl-b inhibition assay of Biological Example 1)
1 | C[C@@H]1CN(Cc2cc3c(c(C(F)(F)F)c2)CN(c2cccc(C4(c5nncn5C)CC(F)(F)C4)c2)C3=O)CCC1(F)F [Compound 52, 2-{3-[3,3-difluoro-1-(4-methyl-1,2,4-triazol-3-yl)cyclobutyl]phenyl}-6-{[(3R)-4,4-difluoro-3-methylpiperidin-1-yl]methyl}-4-(trifluoromethyl)-3H-isoindol-1-one] | < 5 nM | A (A indicates >35 fold) | B (B indicates 20-35 fold) | A (A indicates >2.5 fold) | A (A indicates >1.1 fold) | A (A indicates >2.5 fold) | A (A indicates >1.1 fold) | – | – | –
2 | C[C@@H]1CN(Cc2cc3c(c(C(F)(F)F)c2)CN(c2cccc(C4(c5nncn5C)CC5(CC5)C4)c2)C3=O)CCO1 [Compound 43, (R)-2-(3-(5-(4-methyl-4H-1,2,4-triazol-3-yl)spiro[2.3]hexan-5-yl)phenyl)-6-((2-methylmorpholino)methyl)-4-(trifluoromethyl)isoindolin-1-one] | < 5 nM | B (B indicates 20-35 fold) | A (A indicates >35 fold) | A (A indicates >2.5 fold) | A (A indicates >1.1 fold) | A (A indicates >2.5 fold) | A (A indicates >1.1 fold) | B (B indicates 1.24-1.39 fold) | B (B indicates 1.24-1.39 fold) | –
3 | C[C@@H]1CN(Cc2cc3c(c(C(F)(F)F)c2)CN(c2cccc([C@H](c4nncn4C)C4CCC4)c2)C3=O)CCC1(F)F [Compound 1, 2-(3-((R)-cyclobutyl(4-methyl-4H-1,2,4-triazol-3-yl)methyl)phenyl)-6-(((R)-4,4-difluoro-3-methylpiperidin-1-yl)methyl)-4-(trifluoromethyl)isoindolin-1-one] | < 5 nM | B (B indicates 20-35 fold) | B (B indicates 20-35 fold) | A (A indicates >2.5 fold) | A (A indicates >1.1 fold) | A (A indicates >2.5 fold) | A (A indicates >1.1 fold) | B (B indicates 1.24-1.39 fold) | B (B indicates 1.24-1.39 fold) | ≤ 5 nM
4 | C[C@H]1CCCN(Cc2cc3c(c(C(F)(F)F)c2)CN(c2cccc([C@]4(c5nncn5C)C[C@@H](CC#N)C4)c2)C3=O)C1 [Compound 48, 2-((1R,3s)-3-(4-methyl-4H-1,2,4-triazol-3-yl)-3-(3-(6-(((S)-3-methylpiperidin-1-yl)methyl)-1-oxo-4-(trifluoromethyl)isoindolin-2-yl)phenyl)cyclobutyl)acetonitrile] | < 5 nM | B (B indicates 20-35 fold) | A (A indicates >35 fold) | A (A indicates >2.5 fold) | A (A indicates >1.1 fold) | B (B indicates 1.5-2.5 fold) | B (B indicates 0.70-1.1 fold) | – | – | –
